Measured values reported in patent publication US6211244A, “Calcium receptor-active compounds” (priority 1995, dated 2001).

Target: T1, human calcium receptor (Homo sapiens, UniProt P41180, R990G)
T1 construct: expressed in transfected cells; host or cells: HEK 293
T1 sequence (P41180 20-1078 R990G): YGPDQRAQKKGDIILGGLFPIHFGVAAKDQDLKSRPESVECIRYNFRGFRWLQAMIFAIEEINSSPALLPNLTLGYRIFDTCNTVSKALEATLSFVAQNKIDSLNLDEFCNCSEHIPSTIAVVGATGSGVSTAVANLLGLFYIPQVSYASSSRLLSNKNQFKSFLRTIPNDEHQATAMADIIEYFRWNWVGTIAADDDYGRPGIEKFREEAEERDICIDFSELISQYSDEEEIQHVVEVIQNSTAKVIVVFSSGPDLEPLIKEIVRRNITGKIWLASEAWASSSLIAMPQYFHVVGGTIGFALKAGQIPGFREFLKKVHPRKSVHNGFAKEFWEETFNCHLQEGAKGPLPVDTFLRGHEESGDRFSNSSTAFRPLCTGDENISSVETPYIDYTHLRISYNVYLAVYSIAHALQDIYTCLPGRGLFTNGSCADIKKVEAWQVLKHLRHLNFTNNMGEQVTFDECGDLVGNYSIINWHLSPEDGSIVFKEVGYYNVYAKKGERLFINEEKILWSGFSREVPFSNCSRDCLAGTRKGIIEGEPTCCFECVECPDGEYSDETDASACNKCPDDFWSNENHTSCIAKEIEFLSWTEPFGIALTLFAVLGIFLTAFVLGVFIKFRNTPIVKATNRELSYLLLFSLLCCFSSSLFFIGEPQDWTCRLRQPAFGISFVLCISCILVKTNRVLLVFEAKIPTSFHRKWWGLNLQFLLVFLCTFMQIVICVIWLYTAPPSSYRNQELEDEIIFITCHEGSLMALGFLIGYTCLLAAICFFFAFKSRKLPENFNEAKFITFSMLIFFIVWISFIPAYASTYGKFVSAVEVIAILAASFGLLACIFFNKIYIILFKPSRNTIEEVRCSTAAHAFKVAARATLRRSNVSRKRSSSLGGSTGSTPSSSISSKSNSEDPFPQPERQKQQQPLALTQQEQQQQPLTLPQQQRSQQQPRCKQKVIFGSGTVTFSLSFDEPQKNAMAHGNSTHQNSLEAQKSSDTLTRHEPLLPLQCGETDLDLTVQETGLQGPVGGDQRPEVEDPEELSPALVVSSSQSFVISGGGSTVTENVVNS
Test: increases in [Ca^2+ ]i in HEK-293 cells expressing the human calcium receptor (fura-2 loaded HEK 293/pHuPCaR4.0 cells), % activity
Assay type: cell-based
Conditions: for activity at […]: HEK293

Structure (SMILES) | activity at […] (33 ng/mL) | activity at […] (330 ng/mL) | % activity (33 ng/mL) | % activity (330 ng/mL) | % activity (3300 ng/mL)
C[C@H](CCc1cccc(OC(F)(F)F)c1)N[C@@H](C)c1cccc2ccccc12 [Compound 22X, (S,R)-N-[4-(3-trifluoromethoxyphenyl)-2-butyl]-1-(1-naphthyl)ethylamine] | 48% | 86% | – | – | –
C[C@H](CCc1cccc(OC(F)(F)F)c1)N[C@H](C)c1cccc2ccccc12 [Compound 22Y, (R,R)-N-[4-(3-trifluoromethoxyphenyl)-2-butyl]-1-(1-naphthyl)ethylamine] | 64% | 114% | – | – | –
COc1cccc([C@@H](C)N[C@H](C)CCc2cccc(OC(F)(F)F)c2)c1 [Compound 23A, (R,R)-N-[4-(3-trifluoromethoxyphenyl)-2-butyl]-1-(3-methoxyphenyl)ethylamine] | – | – | 67% | 103% | –
Cc1ccc(CNCc2cccc3c(Br)cccc23)cc1C [Compound 23D] | – | – | 35% | 66% | 91%
C[C@@H](NCc1cccc(OC(F)(F)F)c1)c1cccc2ccccc12 [Compound 23E] | – | – | 102% | 113% | 137%
C[C@@H](NCc1ccc(OC(F)(F)F)cc1)c1cccc2ccccc12 [Compound 23F] | – | – | 45% | 82% | –
COc1ccc(CNC(C)c2ccccc2)cc1C (centres unmarked) [Compound 23G] | – | – | 67% | 93% | 127%
COc1ccc(CNC(C)c2ccccc2OC)cc1C (centres unmarked) [Compound 23H] | 77% | 114% | – | – | –
COc1cccc(C(C)NCc2ccc(OC)c(C)c2)c1 (centres unmarked) [Compound 23I] | – | – | 58% | 102% | –
COc1ccc(CNC(C)c2ccccc2F)cc1C (centres unmarked) [Compound 23J] | – | – | 51% | 61% | 102%
COc1ccc(CNC(C)c2cccc(F)c2)cc1C (centres unmarked) [Compound 23K] | – | – | 72% | 107% | 106%
COc1ccc(CNC(C)c2ccc(F)cc2)cc1C (centres unmarked) [Compound 23L] | – | – | 37% | 77% | 107%
COc1ccc(CNC(C)c2ccccc2Cl)cc1C (centres unmarked) [Compound 23M] | – | – | 74% | 97% | 113%
COc1ccc(CNC(C)c2cccc(Cl)c2)cc1C (centres unmarked) [Compound 23N] | – | – | 50% | 96% | –
COc1ccc(CNC(C)c2ccc(Cl)cc2)cc1C (centres unmarked) [Compound 23O] | – | – | 46% | 79% | 111%
COc1ccc(CNC(C)c2ccccc2Br)cc1C (centres unmarked) [Compound 23P] | – | – | 70% | 99% | 125%
COc1ccc(CNC(C)c2cccc(Br)c2)cc1C (centres unmarked) [Compound 23Q] | – | – | 98% | 114% | 122%
COc1ccc(CNC(C)c2ccc(Br)cc2)cc1C (centres unmarked) [Compound 23R] | – | – | 54% | 86% | 104%
COc1ccc(CNC(C)c2cccc(I)c2)cc1C (centres unmarked) [Compound 23S] | – | – | 53% | 97% | –
COc1ccc(CNC(C)c2ccc(I)cc2)cc1C (centres unmarked) [Compound 23T] | – | – | 60% | 74% | 102%
COc1ccc(CNC(C)c2cccc(C(C)=O)c2)cc1C (centres unmarked) [Compound 23U] | – | – | 48% | 87% | –
COc1ccc(CNC(C)c2ccccc2C)cc1C (centres unmarked) [Compound 23W] | – | – | 81% | 97% | 117%

Structure (SMILES) | activity at […] (33 ng/mL) | activity at […] (330 ng/mL) | % activity (33 ng/mL) | % activity (330 ng/mL) | % activity (3300 ng/mL)
COc1ccc(CNC(C)c2cccc(C)c2)cc1C (centres unmarked) [Compound 23X] | – | – | 49% | 94% | –
COc1ccc(CNC(C)c2cccc(C)c2)cc1C (centres unmarked) [Compound 23Y] | – | – | 61% | 87% | 106%
CCc1cccc(C(C)NCc2ccc(OC)c(C)c2)c1 (centres unmarked) [Compound 23Z] | – | – | 100% | 126% | 129%
CCc1ccc(C(C)NCc2ccc(OC)c(C)c2)cc1 (centres unmarked) [Compound 24A] | – | – | 52% | 85% | 122%
COc1ccc(CNC(C)c2ccccc2C(F)(F)F)cc1C (centres unmarked) [Compound 24B] | – | – | 34% | 61% | 76%
COc1ccc(CNC(C)c2cccc(C(F)(F)F)c2)cc1C (centres unmarked) [Compound 24C] | – | – | 87% | 113% | 116%
COc1ccc(CNC(C)c2ccc(C(F)(F)F)cc2)cc1C (centres unmarked) [Compound 24D] | – | – | 34% | 53% | 87%
COc1ccc(CNC(C)c2cccc(C#N)c2)cc1C (centres unmarked) [Compound 24E] | – | – | 35% | 71% | 94%
COc1ccc(CNC(C)c2ccc(C)c(C)c2)cc1C (centres unmarked) [Compound 24G] | – | – | 75% | 94% | 109%
COc1ccc(CNC(C)c2ccc(F)c(F)c2)cc1C (centres unmarked) [Compound 24I] | – | – | 55% | 84% | 109%
C[C@@H](NCCCc1cccc(OC(F)(F)F)c1)c1cccc2ccccc12 [Compound 24J] | – | – | 75% | 103% | –
COc1cccc([C@@H](C)NCCCc2cc(F)ccc2F)c1 [Compound 24K] | – | – | 78% | 106% | –
COc1cccc([C@@H](C)NCCCc2c(F)cccc2F)c1 [Compound 24L] | – | – | 62% | 105% | –
COc1cccc([C@@H](C)NCCCc2cc(F)cc(F)c2)c1 [Compound 24M] | – | – | 99% | 134% | 132%
CC(NCCCc1ccccc1Cl)c1cccc(Cl)c1 (centres unmarked) [Compound 24O] | – | – | 58% | 114% | 137%
COc1cccc([C@@H](C)NC(C)CCc2cc(F)cc(F)c2)c1 (some centres unmarked) [Compound 24P] | – | – | 110% | 138% | 140%
COC(=O)c1cccc(C(C)NCc2ccc(OC)c(C)c2)c1 (centres unmarked) [Compound 24U] | – | – | 78% | 106% | 106%
CCOC(=O)COc1cccc(C(C)NCc2ccc(OC)c(C)c2)c1 (centres unmarked) [Compound 24V] | – | – | 71% | 98% | 127%
COc1ccc(CN[C@H](C)c2cccc3ccccc23)cc1Br [Compound 24X] | – | – | 124% | 109% | 126%
CCOc1ccc(CN[C@H](C)c2cccc3ccccc23)cc1Cl [Compound 24Y] | – | – | 127% | 120% | 119%
COc1ccc(CNC(C)c2cccc(SC)c2)cc1C (centres unmarked) [Compound 24Z] | – | – | 135% | 138% | 138%
CCOc1ccc(CN[C@H](C)c2cccc3ccccc23)cc1C [Compound 25A] | – | – | 114% | 120% | 122%
